Data published in the supplement of paper PMC10627819.

What was measured:
S. aureus Newman [1] = assay: fitness (endpoint OD595 vs no drug) (fraction); higher = more growth
In short: (§1)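 Fitness was measured as bacterial growth in 384-well plates inoculated at OD595 0.01 (30 µl, or 55 µl for S. pneumoniae). Media were TSB, LB Lennox or CY, at 37 °C. OD595 was read every 30 min for 14 h and background-subtracted against the first reading. Fitness is OD595 at the transition into stationary phase divided by the robust mean of no-drug control wells, capped at 1.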

S. pneumoniae D39V [2] = assay: as above
In short: as §1

B. subtilis 168 = assay: Bliss interaction score (quartile over a dose matrix) (fitness difference); higher = more antagonism (negative = synergy)
In short: (§2)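 Growth in each well was taken as OD595 at entry into stationary phase. Dividing by the plate's robust no-drug mean and capping at 1 gave fitness, and single-drug fitness was inferred from the combination data. The Bliss score, observed minus product-expected fitness, is summarised by quartiles over technical, biological and donor/recipient replicates.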

S. aureus DSM 20231 = assay: as above
In short: as §2

S. aureus Newman [3] = assay: as above
In short: as §2

S. pneumoniae D39V [4] = assay: as above
In short: as §2
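Wherever Bliss interaction score (quartile over a dose matrix) is given: first quartile when negative (synergy) and third quartile when positive (antagonism).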

CC1(C)S[C@@H]2[C@H](NC(=O)[C@H](N)c3ccc(O)cc3)C(=O)N2[C@H]1C(=O)O [Amoxicillin] + C/C(=C\C(=O)OCCCCCCCCC(=O)O)C[C@@H]1OC[C@H](C[C@@H]2O[C@H]2[C@@H](C)[C@H](C)O)[C@@H](O)[C@H]1O [Pseudomonic acid]
fitness, one replicate
Details | partner 0.03 µg/mL | partner 0.0313 µg/mL | partner 0.06 µg/mL | partner 0.0625 µg/mL | partner 0.12 µg/mL | partner 0.125 µg/mL
S. aureus Newman [1], first compound 0.0625 µg/mL | – | 0.0402 | – | 0.0188 | – | 0.0414
S. aureus Newman [1], first compound 0.125 µg/mL | – | 0.0188 | – | 0.0167 | – | 0.0327
S. aureus Newman [1], first compound 0.25 µg/mL | – | 0.0112 | – | 0.0059 | – | 0.0163
S. pneumoniae D39V [2], first compound 0.006 µg/mL | 0.577 | – | 0.64 | – | 0.283 | –

fitness, S. pneumoniae D39V [2]
Details | first compound 0.0008 µg/mL | first compound 0.0015 µg/mL | first compound 0.003 µg/mL
partner 0.03 µg/mL | 0.888 | 0.974 | 0.932
partner 0.06 µg/mL | 0.838 | 0.822 | 0.882
partner 0.12 µg/mL | 0.586 | 0.68 | –

Details | Bliss interaction score
B. subtilis 168 | 0.0663
S. aureus DSM 20231 | 0.0169
S. aureus Newman [3] | -0.031
S. pneumoniae D39V [4] | 0.121

CC1(C)S[C@@H]2[C@H](NC(=O)[C@H](N)c3ccc(O)cc3)C(=O)N2[C@H]1C(=O)O [Amoxicillin] + CC1=C(C(=O)O)N2C(=O)[C@@H](NC(=O)[C@H](N)c3ccccc3)[C@H]2SC1 [Cephalexin]
fitness
Details | partner 0.25 µg/mL | partner 0.5 µg/mL | partner 1 µg/mL | partner 2 µg/mL | partner 4 µg/mL
S. aureus Newman [1], first compound 0.0625 µg/mL | 0.877 | 0.882 | 0.942 | – | –
S. aureus Newman [1], first compound 0.125 µg/mL | 0.928 | 0.921 | 0.894 | – | –
S. aureus Newman [1], first compound 0.25 µg/mL | 0.877 | 0.928 | 0.888 | – | –
S. pneumoniae D39V [2], first compound 0.0015 µg/mL | – | – | 0.791 | 0.337 | 0.0775
S. pneumoniae D39V [2], first compound 0.003 µg/mL | – | – | 0.544 | 0.125 | 0.0383

one replicate
Details | fitness
S. aureus Newman [1], first compound 0.0625 µg/mL, partner 2 µg/mL | 0.864
S. aureus Newman [1], first compound 0.125 µg/mL, partner 2 µg/mL | 0.832
S. aureus Newman [1], first compound 0.25 µg/mL, partner 2 µg/mL | 0.705
S. pneumoniae D39V [2], first compound 0.0008 µg/mL, partner 0.125 µg/mL | 0.978
S. pneumoniae D39V [2], first compound 0.0008 µg/mL, partner 0.25 µg/mL | 0.9
S. pneumoniae D39V [2], first compound 0.0008 µg/mL, partner 0.5 µg/mL | 0.881
S. pneumoniae D39V [2], first compound 0.0008 µg/mL, partner 1 µg/mL | 0.91
S. pneumoniae D39V [2], first compound 0.0008 µg/mL, partner 2 µg/mL | 0.494
S. pneumoniae D39V [2], first compound 0.0008 µg/mL, partner 4 µg/mL | 0.02
S. pneumoniae D39V [2], first compound 0.0015 µg/mL, partner 0.125 µg/mL | 0.922
S. pneumoniae D39V [2], first compound 0.0015 µg/mL, partner 0.25 µg/mL | 0.891
S. pneumoniae D39V [2], first compound 0.0015 µg/mL, partner 0.5 µg/mL | 0.906
S. pneumoniae D39V [2], first compound 0.003 µg/mL, partner 0.125 µg/mL | 0.857
S. pneumoniae D39V [2], first compound 0.003 µg/mL, partner 0.25 µg/mL | 0.835
S. pneumoniae D39V [2], first compound 0.003 µg/mL, partner 0.5 µg/mL | 0.849
S. pneumoniae D39V [2], first compound 0.006 µg/mL, partner 1 µg/mL | 0.0722
S. pneumoniae D39V [2], first compound 0.006 µg/mL, partner 2 µg/mL | 0.0153
S. pneumoniae D39V [2], first compound 0.006 µg/mL, partner 4 µg/mL | 0.0513

Details | Bliss interaction score
B. subtilis 168 | 0.0616
S. aureus DSM 20231 | 0.0743
S. aureus Newman [3] | 0.0592
S. pneumoniae D39V [4] | -0.0619

CC1(C)S[C@@H]2[C@H](NC(=O)[C@H](N)c3ccc(O)cc3)C(=O)N2[C@H]1C(=O)O [Amoxicillin] + CC(C1CCC(C(O1)OC2C(CC(C(C2O)OC3C(C(C(CO3)(C)O)NC)O)N)N)N)NC [Gentamicin]
fitness, main component drawn
Details | partner 0.375 µg/mL | partner 0.5 µg/mL | partner 0.75 µg/mL | partner 1 µg/mL | partner 1.5 µg/mL | partner 2 µg/mL | partner 4 µg/mL | partner 8 µg/mL
S. aureus Newman [1], first compound 0.0625 µg/mL | 0.91 | 0.878 | 0.896 | 0.911 | 0.892 | 0.972 | – | –
S. aureus Newman [1], first compound 0.125 µg/mL | 0.984 | 0.851 | ≥ 1 | 0.899 | 0.974 | 0.968 | – | –
S. aureus Newman [1], first compound 0.25 µg/mL | 0.983 | 0.858 | 0.944 | 0.847 | 0.961 | – | – | –
S. pneumoniae D39V [2], first compound 0.0008 µg/mL | – | – | – | – | – | 0.977 | 0.935 | 0.942
S. pneumoniae D39V [2], first compound 0.0015 µg/mL | – | – | – | – | – | 0.988 | 0.94 | 0.946
S. pneumoniae D39V [2], first compound 0.003 µg/mL | – | – | – | – | – | 0.926 | 0.9 | 0.851

fitness, one replicate, main component drawn
Details | partner 2 µg/mL | partner 4 µg/mL | partner 8 µg/mL
S. aureus Newman [1], first compound 0.0625 µg/mL | – | 0.0669 | –
S. aureus Newman [1], first compound 0.125 µg/mL | – | 0.0478 | –
S. aureus Newman [1], first compound 0.25 µg/mL | – | 0.0624 | –
S. pneumoniae D39V [2], first compound 0.006 µg/mL | 0.587 | 0.634 | 0.508

main component drawn
Details | Bliss interaction score
B. subtilis 168 | -0.0767
S. aureus DSM 20231 | 0.0684
S. aureus Newman [3] | 0.0602
S. pneumoniae D39V [4] | 0.055

CC1(C)S[C@@H]2[C@H](NC(=O)[C@H](N)c3ccc(O)cc3)C(=O)N2[C@H]1C(=O)O [Amoxicillin] + CC[C@H](C)[C@H](N)C1=N[C@H](C(=O)N[C@@H](CC(C)C)C(=O)N[C@H](CCC(=O)O)C(=O)N[C@H](C(=O)N[C@H]2CCCCNC(=O)[C@H](CC(N)=O)NC(=O)[C@@H](CC(=O)O)NC(=O)[C@H](Cc3cnc[nH]3)NC(=O)[C@@H](Cc3ccccc3)NC(=O)[C@H]([C@@H](C)CC)NC(=O)[C@@H](CCCN)NC2=O)[C@@H](C)CC)CS1 [Bacitracin]
S. aureus Newman [1], partner 75 µg/mL, main component drawn
Details | fitness
first compound 0.0625 µg/mL | 0.0143
first compound 0.125 µg/mL | 0.0081
first compound 0.25 µg/mL | 0.0047

main component drawn
Details | Bliss interaction score
B. subtilis 168 | -0.101
S. aureus DSM 20231 | -0.0167
S. aureus Newman [3] | 0.0659
S. pneumoniae D39V [4] | 0.104

CC1(C)S[C@@H]2[C@H](NC(=O)[C@H](N)c3ccc(O)cc3)C(=O)N2[C@H]1C(=O)O [Amoxicillin] + CN(C)c1cc(NC(=O)CNC(C)(C)C)c(O)c2c1C[C@H]1C[C@H]3[C@H](N(C)C)C(O)=C(C(N)=O)C(=O)[C@@]3(O)C(O)=C1C2=O [Tigecycline]
Details | fitness
S. aureus Newman [1], first compound 0.0625 µg/mL, partner 0.039 µg/mL | 0.892
S. aureus Newman [1], first compound 0.0625 µg/mL, partner 0.078 µg/mL | 0.903
S. aureus Newman [1], first compound 0.0625 µg/mL, partner 0.156 µg/mL | 0.884
S. aureus Newman [1], first compound 0.125 µg/mL, partner 0.039 µg/mL | 0.875
S. aureus Newman [1], first compound 0.125 µg/mL, partner 0.078 µg/mL | 0.922
S. aureus Newman [1], first compound 0.125 µg/mL, partner 0.156 µg/mL | 0.862
S. aureus Newman [1], first compound 0.25 µg/mL, partner 0.039 µg/mL | 0.799
S. aureus Newman [1], first compound 0.25 µg/mL, partner 0.078 µg/mL | 0.867
S. aureus Newman [1], first compound 0.25 µg/mL, partner 0.156 µg/mL | 0.817
S. pneumoniae D39V [2], first compound 0.0008 µg/mL, partner 0.65 µg/mL | 0.928
S. pneumoniae D39V [2], first compound 0.0008 µg/mL, partner 1.3 µg/mL | ≥ 1
S. pneumoniae D39V [2], first compound 0.0008 µg/mL, partner 2.6 µg/mL | 0.968
S. pneumoniae D39V [2], first compound 0.0015 µg/mL, partner 0.325 µg/mL | 0.941
S. pneumoniae D39V [2], first compound 0.0015 µg/mL, partner 0.65 µg/mL | 0.942
S. pneumoniae D39V [2], first compound 0.0015 µg/mL, partner 1.3 µg/mL | 0.994
S. pneumoniae D39V [2], first compound 0.0015 µg/mL, partner 2.6 µg/mL | 0.956
S. pneumoniae D39V [2], first compound 0.003 µg/mL, partner 0.325 µg/mL | 0.904
S. pneumoniae D39V [2], first compound 0.003 µg/mL, partner 0.65 µg/mL | 0.921
S. pneumoniae D39V [2], first compound 0.003 µg/mL, partner 1.3 µg/mL | 0.944
S. pneumoniae D39V [2], first compound 0.003 µg/mL, partner 2.6 µg/mL | 0.877

fitness, S. pneumoniae D39V [2], one replicate
Details | partner 0.325 µg/mL | partner 0.65 µg/mL | partner 1.3 µg/mL
first compound 0.0008 µg/mL | 0.969 | – | –
first compound 0.006 µg/mL | 0.386 | 0.449 | 0.458

Details | Bliss interaction score
B. subtilis 168 | -0.0604
S. aureus DSM 20231 | -0.0322
S. aureus Newman [3] | 0.0642
S. pneumoniae D39V [4] | 0.0424
